These results are taken from ChEMBL document CHEMBL4138232, “O2-(2,4-dinitrophenyl)diazeniumdiolates derivatives: Design, synthesis, cytotoxic evaluation and reversing MDR in MCF-7/ADR cells” (Eur J Med Chem, 2018).

Molecules are shown by their SMILES.

Test system in the first data set: not listed separately
The experiment in a line: Selectivity ratio of IC50 for human U2OS cells to IC50 for human MDA-MB-231 cells. Type of data set: functional.
Conditions: not given
Take `COc1ccc(/C=C/C(=O)c2cccc(Oc3cc(O/N=[N+](\[O-])N4CCOCC4)c([N+](=O)[O-])cc3[N+](=O)[O-])c2)cc1`: the “Ratio IC50” value is given as 1.
As for `CCCCOc1ccc(C2CC(c3cccc(Oc4cc(O/N=[N+](\[O-])N5CCCCC5)c([N+](=O)[O-])cc4[N+](=O)[O-])c3)=NN2C(C)=O)cc1OC` (centres undefined), the “Ratio IC50” value was determined as 1.1.

In another data set the test system is HCT-116. The experiment in a line: Antiproliferative activity against human HCT116 cells after 48 hrs by MTT assay relative to control. Format: functional, cell-based. The following applies: HCT-116, 48 h.
Compound `COc1ccc(/C=C/C(=O)c2cccc(Oc3cc(O/N=[N+](\[O-])N4CCOCC4)c([N+](=O)[O-])cc3[N+](=O)[O-])c2)cc1` registered a half-inhibitory concentration (IC50) of 4.91 µM.
As for `CCCCOc1ccc(C2CC(c3cccc(Oc4cc(O/N=[N+](\[O-])N5CCCCC5)c([N+](=O)[O-])cc4[N+](=O)[O-])c3)=NN2C(C)=O)cc1OC` (centres undefined), the IC50 was found to be 7.78 µM.

A further data set concerns HCT-116. The experiment in a line: Cytotoxicity against human HCT116 cells overexpressing GST-Pi assessed as inhibition of cell viability at 10 uM after 48 hrs by MTT assay relative to control. The note with it: HCT-116, 48 h. Format: functional. (In general: Formazan colour is commonly taken as a measure of viable cells.)
With `CCCCCOc1ccc(/C=C/C(=O)c2cccc(Oc3cc(O/N=[N+](\[O-])N4CCOCC4)c([N+](=O)[O-])cc3[N+](=O)[O-])c2)cc1OC`, the inhibition at 10 µM is 66.6%.
As to `CCCCOc1ccc(/C=C/C(=O)c2cccc(Oc3cc(O/N=[N+](\[O-])N4CCCCC4)c([N+](=O)[O-])cc3[N+](=O)[O-])c2)cc1OC`, the inhibition at 10 µM worked out at 58.6%.
On to `CCCCCOc1ccc(/C=C/C(=O)c2cccc(Oc3cc(O/N=[N+](\[O-])N4CCCCC4)c([N+](=O)[O-])cc3[N+](=O)[O-])c2)cc1OC`, for which the inhibition at 10 µM worked out at 33%.
Consider `COc1ccc(/C=C/C(=O)c2cccc(Oc3cc(O/N=[N+](\[O-])N4CCOCC4)c([N+](=O)[O-])cc3[N+](=O)[O-])c2)cc1`, for which the inhibition at 10 µM was determined as 68.7%.
Take `CN(C)c1ccc(/C=C/C(=O)c2cccc(Oc3cc(O/N=[N+](\[O-])N4CCOCC4)c([N+](=O)[O-])cc3[N+](=O)[O-])c2)cc1`: the inhibition at 10 µM stood at 57.1%.
For `CCCCCOc1ccc(C2CC(c3cccc(Oc4cc(O/N=[N+](\[O-])N5CCCCC5)c([N+](=O)[O-])cc4[N+](=O)[O-])c3)=NN2C(C)=O)cc1OC` (centres undefined), the inhibition at 10 µM is 63.7%.
For the compound `CN(C)c1ccc(/C=C/C(=O)c2cccc(Oc3cc(O/N=[N+](\[O-])N4CCCCC4)c([N+](=O)[O-])cc3[N+](=O)[O-])c2)cc1`, the inhibition at 10 µM came to 65.9%.
On to `CCCCCCOc1ccc(/C=C/C(=O)c2cccc(Oc3cc(O/N=[N+](\[O-])N4CCOCC4)c([N+](=O)[O-])cc3[N+](=O)[O-])c2)cc1OC`, for which the inhibition at 10 µM is 52.4%.
In the case of `CCCCCCOc1ccc(/C=C/C(=O)c2cccc(Oc3cc(O/N=[N+](\[O-])N4CCCCC4)c([N+](=O)[O-])cc3[N+](=O)[O-])c2)cc1OC`, the inhibition at 10 µM was found to be 16.1%.
Same read-out and setting: the figure for `CCCCCCOc1ccc(C2CC(c3cccc(Oc4cc(O/N=[N+](\[O-])N5CCOCC5)c([N+](=O)[O-])cc4[N+](=O)[O-])c3)=NN2C(C)=O)cc1OC` (centres undefined) is 66.7%; for `CCCCCCOc1ccc(C2CC(c3cccc(Oc4cc(O/N=[N+](\[O-])N5CCCCC5)c([N+](=O)[O-])cc4[N+](=O)[O-])c3)=NN2C(C)=O)cc1OC` (centres undefined) it is 48%; for `CCCCOc1ccc(/C=C/C(=O)c2cccc(Oc3cc(O/N=[N+](\[O-])N4CCOCC4)c([N+](=O)[O-])cc3[N+](=O)[O-])c2)cc1OC` it is 70.2%.
As for `CCCCOc1ccc(C2CC(c3cccc(Oc4cc(O/N=[N+](\[O-])N5CCCCC5)c([N+](=O)[O-])cc4[N+](=O)[O-])c3)=NN2C(C)=O)cc1OC` (centres undefined), the inhibition at 10 µM is 72.9%.
As for `CCCCCOc1ccc(C2CC(c3cccc(Oc4cc(O/N=[N+](\[O-])N5CCOCC5)c([N+](=O)[O-])cc4[N+](=O)[O-])c3)=NN2C(C)=O)cc1OC` (centres undefined), the inhibition at 10 µM stood at 68.3%.

Test system in another data set: not listed separately
The experiment in a line: Selectivity ratio of IC50 for human MCF10A cells to IC50 for human MDA-MB-231 cells. Format: toxicity. The note with it: MCF10A cells versus MDA-MB-231 cells, read-out: Ratio IC50.
For the compound `COc1ccc(/C=C/C(=O)c2cccc(Oc3cc(O/N=[N+](\[O-])N4CCOCC4)c([N+](=O)[O-])cc3[N+](=O)[O-])c2)cc1`, the selectivity ratio is 3.1.
The same measure, in the same setting: for `CCCCOc1ccc(C2CC(c3cccc(Oc4cc(O/N=[N+](\[O-])N5CCCCC5)c([N+](=O)[O-])cc4[N+](=O)[O-])c3)=NN2C(C)=O)cc1OC` (centres undefined) the value was 24.4.

Test system in a further data set: not listed separately
The experiment in a line: Selectivity ratio of IC50 for human HCT116 cells to IC50 for human MDA-MB-231 cells. Type of data set: functional.
Conditions: not given
As to `COc1ccc(/C=C/C(=O)c2cccc(Oc3cc(O/N=[N+](\[O-])N4CCOCC4)c([N+](=O)[O-])cc3[N+](=O)[O-])c2)cc1`, the “Ratio IC50” value came to 0.9.
Take `CCCCOc1ccc(C2CC(c3cccc(Oc4cc(O/N=[N+](\[O-])N5CCCCC5)c([N+](=O)[O-])cc4[N+](=O)[O-])c3)=NN2C(C)=O)cc1OC` (centres undefined): the “Ratio IC50” value amounted to 2.4.

In another data set the test system is A549. The experiment in a line: Antiproliferative activity against human A549 cells after 48 hrs by MTT assay relative to control. Type of data set: functional, cell-based. The following applies: A549, 48 h.
In turn, `COc1ccc(/C=C/C(=O)c2cccc(Oc3cc(O/N=[N+](\[O-])N4CCOCC4)c([N+](=O)[O-])cc3[N+](=O)[O-])c2)cc1` came in with an IC50 of 5.9 µM.
Take `CCCCOc1ccc(C2CC(c3cccc(Oc4cc(O/N=[N+](\[O-])N5CCCCC5)c([N+](=O)[O-])cc4[N+](=O)[O-])c3)=NN2C(C)=O)cc1OC` (centres undefined): the IC50 is 6.94 µM.

The next data set is filed under the species Homo sapiens. The experiment in a line: Inhibition of MDR in human MCF7/ADR cells assessed as potentiation of adriamycin-induced antiproliferative activity by measuring fold reduction in adriamycin IC50 at 10 uM after 48 hrs by MTT assay. Type of data set: cell-based.
Conditions: not given
For `COc1ccc(/C=C/C(=O)c2cccc(Oc3cc(O/N=[N+](\[O-])N4CCOCC4)c([N+](=O)[O-])cc3[N+](=O)[O-])c2)cc1`, the fold change (FC) was 64.2.
With `COc1ccc(CCN(C)CCCC(C#N)(c2ccc(OC)c(OC)c2)C(C)C)cc1OC` (centres undefined), the fold change (FC) was found to be 29.8.
On to `CCCCCOc1ccc(C2CC(c3cccc(Oc4cc(O/N=[N+](\[O-])N5CCOCC5)c([N+](=O)[O-])cc4[N+](=O)[O-])c3)=NN2C(C)=O)cc1OC` (centres undefined), for which the fold change (FC) is 16.8.

Test system in another data set: not listed separately
The experiment in a line: Selectivity ratio of IC50 for human A549 cells to IC50 for human MDA-MB-231 cells. Format: functional.
Conditions: not given
Take `COc1ccc(/C=C/C(=O)c2cccc(Oc3cc(O/N=[N+](\[O-])N4CCOCC4)c([N+](=O)[O-])cc3[N+](=O)[O-])c2)cc1`: the “Ratio IC50” value came out at 1.1.
`CCCCOc1ccc(C2CC(c3cccc(Oc4cc(O/N=[N+](\[O-])N5CCCCC5)c([N+](=O)[O-])cc4[N+](=O)[O-])c3)=NN2C(C)=O)cc1OC` (centres undefined): the “Ratio IC50” value is listed as 2.1.

Another data set has as its system MCF-10A. The experiment in a line: Antiproliferative activity against human MCF10A cells after 48 hrs by MTT assay relative to control. Format: cell-based.
Conditions: not given
In turn, `COc1ccc(/C=C/C(=O)c2cccc(Oc3cc(O/N=[N+](\[O-])N4CCOCC4)c([N+](=O)[O-])cc3[N+](=O)[O-])c2)cc1` had an IC50 of 16.6 µM.
Still for that read-out and setting: for `CCCCOc1ccc(C2CC(c3cccc(Oc4cc(O/N=[N+](\[O-])N5CCCCC5)c([N+](=O)[O-])cc4[N+](=O)[O-])c3)=NN2C(C)=O)cc1OC` (centres undefined) the value was 79.7 µM.

Test system in the next data set: not listed separately
The experiment in a line: Cytotoxicity against ADR-sensitive human MCF7 cells assessed as inhibition of cell viability at 10 uM after 48 hrs by MTT assay relative to control. The note with it: read-out: INH. Type of data set: cell-based.
For the compound `COc1ccc(/C=C/C(=O)c2cccc(Oc3cc(O/N=[N+](\[O-])N4CCOCC4)c([N+](=O)[O-])cc3[N+](=O)[O-])c2)cc1`, the cytotoxicity at 48 h, 10 µM was found to be 5.4%.
Regarding `CCCCCOc1ccc(C2CC(c3cccc(Oc4cc(O/N=[N+](\[O-])N5CCOCC5)c([N+](=O)[O-])cc4[N+](=O)[O-])c3)=NN2C(C)=O)cc1OC` (centres undefined), the cytotoxicity at 48 h, 10 µM was found to be 21.7%.

In another data set the test system is MCF7. The experiment in a line: Cytotoxicity against ADR-sensitive human MCF7 cells assessed as inhibition of cell viability after 48 hrs by MTT assay. Format: cell-based. The following applies: MCF7, 48 h.
As to `COc1ccc(/C=C/C(=O)c2cccc(Oc3cc(O/N=[N+](\[O-])N4CCOCC4)c([N+](=O)[O-])cc3[N+](=O)[O-])c2)cc1`, the half-maximal inhibitory concentration (IC50) came out at 29.9 µM.
On the same count and under the same terms, the figure for `CCCCCOc1ccc(C2CC(c3cccc(Oc4cc(O/N=[N+](\[O-])N5CCOCC5)c([N+](=O)[O-])cc4[N+](=O)[O-])c3)=NN2C(C)=O)cc1OC` (centres undefined) is 35.8 µM.

The next data set has as its system MDA-MB-231. The experiment in a line: Antiproliferative activity against human MDA-MB-231 cells after 48 hrs by MTT assay relative to control. Type of data set: functional, cell-based. The following applies: MDA-MB-231, 48 h.
`COc1ccc(/C=C/C(=O)c2cccc(Oc3cc(O/N=[N+](\[O-])N4CCOCC4)c([N+](=O)[O-])cc3[N+](=O)[O-])c2)cc1` gave an IC50 of 5.34 µM.
With `CCCCOc1ccc(C2CC(c3cccc(Oc4cc(O/N=[N+](\[O-])N5CCCCC5)c([N+](=O)[O-])cc4[N+](=O)[O-])c3)=NN2C(C)=O)cc1OC` (centres undefined), it took 3.27 µM to reach half-maximal inhibition (IC50).

Another data set concerns U2OS. The experiment in a line: Antiproliferative activity against human U2OS cells after 48 hrs by MTT assay relative to control. Type of data set: functional, cell-based.
Conditions: not given
Consider `COc1ccc(/C=C/C(=O)c2cccc(Oc3cc(O/N=[N+](\[O-])N4CCOCC4)c([N+](=O)[O-])cc3[N+](=O)[O-])c2)cc1`, for which it took 5.19 µM to reach half-maximal inhibition (IC50).
In turn, `CCCCOc1ccc(C2CC(c3cccc(Oc4cc(O/N=[N+](\[O-])N5CCCCC5)c([N+](=O)[O-])cc4[N+](=O)[O-])c3)=NN2C(C)=O)cc1OC` (centres undefined) had an IC50 of 3.55 µM.

In general, IC50 refers to the concentration that gives 50% inhibition. As usually defined, the inhibition is the change of the read-out against control, counted positive when it falls.
